Columns and labels:
CDK5/p35 = biological target: T1, CDK5/p35 (Homo sapiens, UniProt Q00535); assay: Kinase inhibition assay with [γ-33P]ATP; assay type: biochemical; details: histone H1, 0.15 μM ATP
T1 construct: purchased ProQinase GmbH
Outline: (§1)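 Radiometric [γ-33P]ATP assay in HEPES pH 7.5 with Mg2+/Mn2+: CDK1/Cyclin B (Sf9-expressed) and purchased CDK5/p35 with 1 mg/mL histone H1 at 15 and 0.15 μM ATP respectively; FLT3 WT and FLT3-ITD with AGLT substrate at 1 μM ATP. Reactions stopped with H3PO4, spotted onto phosphocellulose and washed.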

[1] = system: Kasumi-1 (acute myeloid leukemia, KIT mutation Asn822Lys); assay: Calcein AM cytotoxicity assay; assay type: cell-based; details: Homo sapiens, 72 h; Kasumi-1; Calcein AM, three days; read-out: EC50 values (μM) Kasumi-1
Outline: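 Kasumi-1 cells were grown in RPMI-1640 + 15% FBS, other lines at 37° C., 5% CO2, and seeded the day before compound addition in triplicates at various concentrations. After 3 days, viability was read with Calcein AM (1 μg/ml final, 1 h) as live-cell fluorescence at ex 485/em 538 nm.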

CDK1/Cyclin B = biological target: T2, CDK1/Cyclin B (Homo sapiens, UniProt P06493); assay: Kinase inhibition assay with [γ-33P]ATP; assay type: biochemical; details: histone H1, 15 μM ATP
T2 construct: made in house; host or cells: Sf9 insect cells, baculoviral infection
Outline: as §1

HL60 = assay: Calcein AM cytotoxicity assay; assay type: cell-based; details: Homo sapiens, HL-60, 72 h, three days
[2] = system: H1703 (non-small cell lung carcinoma, PDGFRA amplification); assay: Calcein AM cytotoxicity assay; assay type: cell-based; details: Homo sapiens, NCI-H1703, 72 h, three days
Outline: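 After overnight attachment in 96-well format, test compounds are applied at a range of concentrations in triplicate and left for three days. Calcein AM is then added to 1 μg/ml final for 1 h, and fluorescence of the calcein released by intracellular esterases measures viable cell number.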

T2 sequence (P06493 whole entry, species assumed): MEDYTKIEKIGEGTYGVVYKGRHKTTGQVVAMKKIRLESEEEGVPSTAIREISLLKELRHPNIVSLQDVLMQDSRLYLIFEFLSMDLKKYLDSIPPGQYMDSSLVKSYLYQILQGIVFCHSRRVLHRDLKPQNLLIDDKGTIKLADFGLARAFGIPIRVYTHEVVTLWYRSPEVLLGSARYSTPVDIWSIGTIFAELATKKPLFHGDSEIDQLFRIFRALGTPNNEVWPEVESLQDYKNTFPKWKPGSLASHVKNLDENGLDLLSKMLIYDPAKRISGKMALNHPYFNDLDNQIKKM
T2 sequence (P14635 whole entry partner, species assumed): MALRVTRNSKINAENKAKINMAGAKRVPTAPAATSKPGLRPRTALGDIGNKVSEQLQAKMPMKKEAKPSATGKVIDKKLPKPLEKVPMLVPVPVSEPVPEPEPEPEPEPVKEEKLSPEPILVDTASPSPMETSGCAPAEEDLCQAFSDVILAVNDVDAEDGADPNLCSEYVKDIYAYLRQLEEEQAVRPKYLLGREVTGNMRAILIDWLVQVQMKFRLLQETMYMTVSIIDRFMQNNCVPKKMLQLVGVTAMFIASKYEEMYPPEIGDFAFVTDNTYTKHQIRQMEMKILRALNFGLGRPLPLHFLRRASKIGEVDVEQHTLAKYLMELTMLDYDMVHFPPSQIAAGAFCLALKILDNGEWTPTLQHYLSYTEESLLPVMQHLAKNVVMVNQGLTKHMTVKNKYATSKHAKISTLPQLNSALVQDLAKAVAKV
T1 sequence (Q00535 whole entry): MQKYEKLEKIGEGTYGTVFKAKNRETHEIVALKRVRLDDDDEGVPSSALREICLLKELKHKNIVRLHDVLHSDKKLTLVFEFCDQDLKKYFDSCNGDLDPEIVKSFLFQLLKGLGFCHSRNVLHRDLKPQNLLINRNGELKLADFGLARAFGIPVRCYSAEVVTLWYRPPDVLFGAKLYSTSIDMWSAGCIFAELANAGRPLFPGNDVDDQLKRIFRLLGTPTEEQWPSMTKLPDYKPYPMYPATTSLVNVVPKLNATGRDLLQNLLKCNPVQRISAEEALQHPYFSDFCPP
T1 sequence (Q15078 whole entry partner): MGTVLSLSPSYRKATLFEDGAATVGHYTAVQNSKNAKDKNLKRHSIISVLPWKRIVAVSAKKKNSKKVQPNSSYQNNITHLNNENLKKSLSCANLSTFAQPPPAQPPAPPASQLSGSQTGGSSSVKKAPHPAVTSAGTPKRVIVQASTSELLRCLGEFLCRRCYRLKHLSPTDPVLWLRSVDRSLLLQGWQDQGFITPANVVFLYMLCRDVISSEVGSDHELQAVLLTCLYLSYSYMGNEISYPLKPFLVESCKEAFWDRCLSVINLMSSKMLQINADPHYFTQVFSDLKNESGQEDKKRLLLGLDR

Row | SMILES | IC50 (CDK5/p35) | EC50 [1] | IC50 (CDK1/Cyclin B) | EC50 (HL60) | EC50 [2]
1 | NC1CCC(Nc2nc(Nc3ccc(CN4CCOCC4)cc3)c3ncn(C4CCCC4)c3n2)CC1 (stereo not drawn) [Compound 264] | 0.034 µM | – | – | – | –
2 | NC1CCC(Nc2nc(Nc3ccc(CN4CCNCC4)cc3)c3ncn(C4CCCC4)c3n2)CC1 (stereo not drawn) [Compound 2] | 0.065 µM | 0.481 µM | 0.045 µM | 3.51 µM | –
3 | NC1CCC(Nc2nc(Nc3ccc(N4CC5(COC5)C4)cc3)c3ncn(C4CCCC4)c3n2)CC1 (stereo not drawn) [Compound 272] | 0.059 µM | 0.773 µM | 0.094 µM | – | 0.412 µM
4 | CN1CCN(C(=O)c2ccc(Nc3nc(NC4CCC(N)CC4)nc4c3ncn4C3CCCC3)cc2)CC1 (stereo not drawn) [Compound 3] | 0.058 µM | 1.23 µM | 0.034 µM | 1.29 µM | –
5 | CN(C)CCNc1nc(Nc2ccc(CN3CCOCC3)nc2)c2ncn(C3CCCC3)c2n1 [Compound 172] | – | 1.5 µM | – | – | 0.35 µM
6 | NCCCCNc1nc(Nc2ccc(N3CCOCC3)cc2)c2ncn(C3CCCC3)c2n1 [Compound 265] | – | – | – | – | 0.482 µM
7 | CN1CC2(C1)CN(c1ccc(Nc3nc(NC4CCC(O)CC4)nc4c3ncn4C3CCCC3)cc1)C2 (stereo not drawn) [Compound 7] | 0.03 µM | – | 0.013 µM | – | –
8 | CN1CCN(C(=O)c2ccc(Nc3nc(NCCCCN)nc4c3ncn4C3CCCC3)cc2)CC1 [Compound 27] | – | 0.637 µM | – | 0.989 µM | –
9 | NC1CCC(Nc2nc(Nc3ccc(N4CCOCC4)cc3)c3ncn(C4CCCC4)c3n2)CC1 (stereo not drawn) [Compound 1] | – | 0.944 µM | – | – | 0.189 µM
10 | NC1CCC(Nc2nc(Nc3ccc(N4CCCC4)cc3)c3ncn(C4CCCC4)c3n2)CC1 (stereo not drawn) [Compound 263] | 0.359 µM | 0.569 µM | 0.082 µM | 3.93 µM | –
11 | NCCNc1nc(Nc2ccc(CN3CCNCC3)cc2)c2ncn(C3CCCC3)c2n1 [Compound 14] | 0.065 µM | 0.781 µM | 0.037 µM | 2.68 µM | –
12 | NCCCCNc1nc(Nc2ccc(N3CC4(COC4)C3)nc2)c2ncn(C3CCCC3)c2n1 [Compound 28] | – | 0.839 µM | – | – | 0.214 µM
13 | CCN1CCN(c2ccc(Nc3nc(NCCCCN)nc4c3ncn4C3CCCC3)cc2)CC1 [Compound 266] | – | – | – | – | 0.978 µM

Source: patent US11028087B2, “2,6-disubstituted-9-cyclopentyl-9H-purines, use thereof as medicaments, and pharmaceutical compositions” (UNIVERZITA PALACKEHO V OLOMOUCI, priority 2017, dated 2021)
